How the values were obtained:
COPD HBEC ALI cultures [1] = assay: Whole cigarette smoke (WCS) challenge in ALI, FITC-dextran permeability; assay type: cell-based, human; details: 10 μM started after first smoke exposure, 4 exposures in 2 days, all concentrations except the highest (1, 0.5 and 0.2 l/min dilution), one COPD donor, exploratory
Method: The paracellular permeability was determined by using fluorescein isothiocyanate labeled 4kD-dextran (Sigma-Aldrich, St. Louis, USA). 18 hours after addition of 0.2 mg FITC-dextran in 200 μL medium to the apical side of the ALI cultures, the fluorescence in the basolateral medium was measured using PHERAstar FSX (excitation 485 nm and emission 520 nm) (BMG LABTECH, Ortenberg, Germany). The time point was chosen for optimal window in the assays as well as practical reasons and has been kept consistent in between different stimulations throughout this work. Data was plotted as fold-change of 0.1% DMSO control.
Whole cigarette smoke (WCS) experiments were performed using the Smoking Robot VC 10® S-TYPE (Vitrocell, Waldkirch, Germany). The Vitrocell smoke robot delivers either WCS or humidified air to the apical surface of the cell layers. Briefly, inserts with fully differentiated HBEC in ALI from one COPD donor were placed in the Vitrocell smoke chamber filled with DMEM medium (Thermo Fisher Scientific) and CS or humidified air was puffed onto the apical surface. ISO Puff Standard was used with each CS exposure consisting of two 3R4F Kentucky research cigarettes (one 35 ml puff every 60 seconds). Cells were exposed to WCS four times during two days with a minimum of two hours elapsed between smoke exposures. […] Permeability was measured 20 hours after the last smoke session.

Kv4.3 = biological target: T1, Kv4.3 (Homo sapiens, UniProt Q9UK17); assay: Cardiovascular ion channel panel, SyncroPatch 384PE patch clamp; assay type: cell-based; details: CHO K1 cell line, room temperature, 6 point cumulative assay
T1 construct: expressed in transfected cells; host or cells: Chinese hamster ovary K1 cell line
T1 sequence (Q9UK17 1-655): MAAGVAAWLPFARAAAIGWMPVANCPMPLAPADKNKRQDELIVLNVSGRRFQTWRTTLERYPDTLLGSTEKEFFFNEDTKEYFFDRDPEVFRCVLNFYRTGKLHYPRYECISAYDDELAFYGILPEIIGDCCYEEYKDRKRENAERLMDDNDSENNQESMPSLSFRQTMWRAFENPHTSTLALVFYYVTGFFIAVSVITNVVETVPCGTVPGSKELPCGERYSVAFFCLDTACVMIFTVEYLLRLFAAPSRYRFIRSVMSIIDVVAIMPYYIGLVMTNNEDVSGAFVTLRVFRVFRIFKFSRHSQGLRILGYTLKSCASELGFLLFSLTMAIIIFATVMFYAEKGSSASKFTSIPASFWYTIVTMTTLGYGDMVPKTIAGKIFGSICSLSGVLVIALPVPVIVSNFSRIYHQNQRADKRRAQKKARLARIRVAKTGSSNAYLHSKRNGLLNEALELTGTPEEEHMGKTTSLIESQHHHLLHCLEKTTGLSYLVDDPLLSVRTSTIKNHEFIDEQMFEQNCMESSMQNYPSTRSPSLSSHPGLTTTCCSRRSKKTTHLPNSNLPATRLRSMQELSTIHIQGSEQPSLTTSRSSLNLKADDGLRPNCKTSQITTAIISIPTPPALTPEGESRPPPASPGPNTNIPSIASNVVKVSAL

COPD HBEC ALI cultures [2] = assay: Western blot of membrane protein from ALI cell cultures; assay type: cell-based, human; details: 10 μM, TNF-challenged, four COPD donors, trend observed
Method: For extraction of membrane and cytosol proteins the cells were lysed according to the Mem-PER Plus Membrane Protein Kit protocol (#89842, ThermoFisher Scientific). The supernatants were kept frozen in −80°C until total protein quantification. Quantification of total protein in the lysates was done using Pierce BCA Protein Assay Kit (#23227, Thermo Scientific) following the manufacturer´s instructions. Lysates containing 8 μg total protein were mixed with NuPAGE LDS Sample buffer 4x (NP007, Invitrogen), NuPAGE Sample Reducing Agent 10x (NP004, Invitrogen) and deionized water and then heated for ten minutes at 70°C. The samples were loaded onto NuPAGE 4–12% Bis-Tris Gels (NP0335, Invitrogen) and run at 120V for 100 minutes in NuPAGE MOPS SDS Running buffer (NP0001, Invitrogen). The proteins were transferred to nitrocellulose membranes (LC2001, Invitrogen) at 35 mA overnight using NuPAGE Transfer buffer (NP0006, Invitrogen) supplemented with 20% methanol. The membranes were stained with Revert Total Protein Stain (926–11011, LI-COR Biosciences) for five minutes, washed and then imaged in the 700 nm channel using Odyssey CLX imaging system (LI-COR Biosciences). To correct for variation in loading the total signal intensity of all proteins in each lane were used for normalization. An inter-membrane control sample was loaded to all gels to assure there were no differences due to methodology between the blots. The stain was removed with Revert Destaining Solution (926–11013, LI-COR Biosciences) and the membranes were blocked in Intercept (TBS) Blocking Buffer (927–60001, LI-COR Biosciences) for one hour on a shaker. […] After a final wash, three times for ten minutes in TBS-T, the fluorescent signals were detected using the Odyssey CLX imaging system and the signals were analysed using Image Studio software (v4.0, LI-COR Biosciences).

ACY-1083
paracellular permeability after WCS challenge (COPD HBEC ALI cultures [1]): decrease permeability
activity on Kv4.3 (Kv4.3): > 30 µM
E-cadherin level in membrane fraction (COPD HBEC ALI cultures [2]): not significantly higher
Occludin level in membrane fraction (COPD HBEC ALI cultures [2]): not significantly higher
β-catenin level in membrane fraction (COPD HBEC ALI cultures [2]): not significantly higher

From article PMC9555642 (PLoS ONE, 2022)
